According to ChEMBL document CHEMBL6114975, “Discovery of 2,4-quinazolinedione derivatives as LC3B recruiters in the facilitation of protein complex degradations” (Eur J Med Chem, 2025):

Experiments:
[1] = test system: WSUDLCL2; assay: Antiproliferative activity against human WSUDLCL2 cells
[2] = target: Cyclin-dependent kinase 9 (Homo sapiens) (UniProt P50750); details: dose 100.0 nM
Description: Inhibition of CDK9 (unknown origin) at 100 nM relative to control

[3] = target: Cyclin-dependent kinase 9 (Homo sapiens) (UniProt P50750); details: dose 10.0 nM
Description: Inhibition of CDK9 (unknown origin) at 10 nM relative to control

Sequence of Cyclin-dependent kinase 9 (Homo sapiens) (P50750 whole entry): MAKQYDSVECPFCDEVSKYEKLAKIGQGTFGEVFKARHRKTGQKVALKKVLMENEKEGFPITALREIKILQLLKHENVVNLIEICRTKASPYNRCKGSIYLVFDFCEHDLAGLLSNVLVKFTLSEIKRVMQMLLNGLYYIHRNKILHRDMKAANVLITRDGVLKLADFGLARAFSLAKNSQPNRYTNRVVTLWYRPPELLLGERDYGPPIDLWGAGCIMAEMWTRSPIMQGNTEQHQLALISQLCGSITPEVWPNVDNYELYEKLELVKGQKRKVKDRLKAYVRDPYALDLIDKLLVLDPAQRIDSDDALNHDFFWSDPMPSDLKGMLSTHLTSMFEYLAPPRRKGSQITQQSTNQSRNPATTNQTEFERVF

Row | SMILES | IC50 [1] | inhibition [2] | inhibition [3]
1 | CC(C)(C)c1cnc(CSc2cnc(NC(=O)C3CCNCC3)s2)o1 [BMS-387032] | 201 nM | 83% | 22%
2 | CC(C)(C)c1cnc(CSc2cnc(NC(=O)C3CCN(CCCn4c(=O)n(Cc5ccncc5)c(=O)c5ccc(Cl)cc54)CC3)s2)o1 | 82 nM | 85% | 13%
3 | CC(C)(C)c1cnc(CSc2cnc(NC(=O)C3CCN(CCCn4c(=O)n(Cc5ccncc5)c(=O)c5cccnc54)CC3)s2)o1 | 13 nM | 88% | 30%
4 | CCn1c(=O)c2ccc(Cl)cc2n(CCCN2CCC(C(=O)Nc3ncc(SCc4ncc(C(C)(C)C)o4)s3)CC2)c1=O | 332 nM | 82% | -2%
5 | CC(C)(C)c1cnc(CSc2cnc(NC(=O)C3CCN(CC(=O)NCCOCCOCCOCCNc4cccc5c4C(=O)N(C4CCC(=O)NC4=O)C5=O)CC3)s2)o1 (stereo not given) | 310 nM | 13% | 
6 | CCn1c(=O)c2cccnc2n(CCCN2CCC(C(=O)Nc3ncc(SCc4ncc(C(C)(C)C)o4)s3)CC2)c1=O | 39 nM | 83% | 27%
7 | CC(C)(C)c1cnc(CSc2cnc(NC(=O)C3CCN(CCCn4c(=O)n(Cc5ccccc5)c(=O)c5cccnc54)CC3)s2)o1 | 326 nM | 84% | 19%
